Results taken from patent US20140343480A1, “SYSTEMS, METHODS, AND COMPOSITIONS FOR CROSS-LINKING” (AVEDRO, INC., priority 2013, published 2014).
≈ marks a conversion by molar mass, not a printed value. Blank lines part the entries; values can stand above or below the compound they belong to.

Experiments:
corneal collagen [1] = assay: Papain digest fluorescence of corneal flaps (collagen cross-linking); set-up: species or system Pig; details: for fluorescence of the digested corneas in the area 450 nm: 20 min soak, 30 mW/cm^2, 4 min continuous UVA, vs non-cross-linked control; for fluorescence of the corneal samples after digestion with papain (excitation 360 nm): 30 mW/cm^2, pulsed 1 s on/1 s off, 8 min, oxygen, vs controls not exposed to UV; for fluorescence (relative to the untreated controls, Fo) recorded at 450 nm: 1% solution in dH2O
Procedure: Corneas were pan-corneally irradiated with a top hat beam (3% root mean square) for 8 minutes (7.2 J total dose) in a cylinder filled with oxygen with 365-nm light source (pulsing 1 second on, 1 second off) (UV LED NCSU033B[T]; Nichia Co., Tokushima, Japan) at the chosen irradiance (30 mW/cm^2) which was measured with a power sensor (model PD-300-UV; Ophir, Inc., Jerusalem, Israel) at the corneal surface. Before the start of irradiation, oxygen's exposure was 2 minutes. Corneal flaps (approximately 200 μm thick) were excised from the eyes with aid of Intralase femtosecond laser (Abbot Medical Optics, Santa Ana, Calif.). The average thickness of the corneal flaps was calculated as a difference between the measurements before and after the excision from the eyes with an ultrasonic Pachymeter (DGH Technology, Exton, Pa.). The flaps were washed with distilled water two times, dried with filter paper, washed with dH2O two times, and then dried in a vacuum until the weight change became less than 10% (Rotary vane vacuum pump RV3 A652-01-903, BOC Edwards, West Sussex, UK). Each flap was digested for 2.5 hours at 65° C. with 2.5 units/ml of papain (from Papaya latex, Sigma) in 1 ml of papain buffer [BBBS (pH 7.0-7.2), 2 mM L-cysteine and 2 mM EDTA]. Papain digests were centrifuged for 5 seconds at 2200×G (Mini centrifuge 05-090-100, Fisher Scientific), diluted 0.5 times with BBBS and fluorescence of the solutions was measured with excitation of λex=360 nm in a QM-40 Spectrofluorometer (Photon Technology Int., London, Ontario, Canada). The fluorescence of the papain buffer was taken into account by measuring fluorescence in the absence of tissue and subtracting this value from the fluorescence of the samples.
This method was used because the non-enzymatic cross-link density in collagens was previously quantified with use of papain digest fluorescence. There is a linear relationship between fluorescence and increasing cross-linking activity.
Corneal flaps were soaked in either distilled water or diluted H2O2 (1%) for 20 minutes. Flaps soaked in H2O2 were either rinsed twice with distilled water or removed from H2O2 and placed in 0.1% FeSO4 solution in distilled water for an additional 20 minute soak followed by a 2× rinse with distilled water. Flaps were dried in a vacuum until the weight change became less than 10% (Rotary vane vacuum pump RV3 A652-01-903, BOC Edwards, West Sussex, UK). Each flap was digested for 2.5 hours at 65° C. with 2.5 units/ml of papain (from Papaya latex, Sigma) in 1 ml of papain buffer [BBBS (pH 7.0-7.2), 2 mM L-cysteine and 2 mM EDTA]. Papain digests were centrifuged for 5 seconds at 2200×G (Mini centrifuge 05-090-100, Fisher Scientific), diluted 0.5 times with BBBS and fluorescence of the solutions was measured with excitation of λex=360 nm in a QM-40 Spectrofluorometer (Photon Technology Int., London, Ontario, Canada). The fluorescence of the papain buffer was taken into account by measuring fluorescence in the absence of tissue and subtracting this value from the fluorescence of the samples.
Pig eyes were shipped overnight on ice from an abattoir (SiouxPreme, Sioux City, Iowa), rinsed in saline. Eyes were cleaned and epithelium was removed. […] If specified, eyes were placed in a beaker with a light oxygen stream for 2 minutes in the incubation chamber prior to irradiation. Corneas were pan-corneally irradiated with a top hat beam (3% root mean square) for the chosen time (4 or 8 minutes) with 365-nm light source (UV LED NCSU033B[T]; Nichia Co., Tokushima, Japan) at the chosen irradiance (30 mW/cm^2, pulsed or non-pulsed) which was measured with a power sensor (model PD-300-UV; Ophir, Inc., Jerusalem, Israel) at the corneal surface. Corneal flaps (approximately 200 μm thick) were excised from the eyes with aid of Intralase femtosecond laser (Abbot Medical Optics, Santa Ana, Calif.).

corneal collagen [2] = assay: Biaxial extensometry (tensiometry) of corneal flaps; set-up: species or system Pig; details: for displacement vs. force (corneal stiffening): 30 mW/cm^2, pulsed 1 s on/1 s off, 8 min, oxygen, vs unexposed controls; for displacement-force (corneal stiffness): 1% solution in dH2O
Procedure: Pig eyes were shipped overnight on ice from an abattoir (SiouxPreme, Sioux City, Iowa), rinsed in saline. Eyes were cleaned and epithelium was removed. […] If specified, eyes were placed in a beaker with a light oxygen stream for 2 minutes in the incubation chamber prior to irradiation. Corneas were pan-corneally irradiated with a top hat beam (3% root mean square) for the chosen time (4 or 8 minutes) with 365-nm light source (UV LED NCSU033B[T]; Nichia Co., Tokushima, Japan) at the chosen irradiance (30 mW/cm^2, pulsed or non-pulsed) which was measured with a power sensor (model PD-300-UV; Ophir, Inc., Jerusalem, Israel) at the corneal surface. Corneal flaps (approximately 200 μm thick) were excised from the eyes with aid of Intralase femtosecond laser (Abbot Medical Optics, Santa Ana, Calif.). The average thickness of the corneal flaps was calculated as a difference between the measurements before and after the excision from the eyes with an ultrasonic Pachymeter (DGH Technology, Exton, Pa.). The flaps were placed into a biaxial extensometer (CellScale Biotester 5000, Waterloo, ON), using biorake attachments with 5 tines spanning a width of 3 mm. Each sample was stretched at a constant rate of 4 μm/s in saline at 37° C. until sample failure. The flaps were washed with distilled water 2 times, dried with filter paper, washed with dH2O two times, and then dried in a vacuum until the weight change became less than 10% (Rotary vane vacuum pump RV3 A652-01-903, BOC Edwards, West Sussex, UK). Each flap was digested for 2.5 hours at 65° C. with 2.5 units/ml of papain (from Papaya latex, Sigma) in 1 ml of papain buffer [BBBS (pH 7.0-7.2), 2 mM L-cysteine and 2 mM EDTA]. Papain digests were centrifuged for 5 seconds at 2200×G (Mini centrifuge 05-090-100, Fisher Scientific), diluted 0.5 times with 1XBBBS and fluorescence of the solutions was measured with excitation of λex=360 nm in a QM-40 Spectrofluorometer (Photon Technology Int., London, Ontario, Canada). The fluorescence of the papain buffer was taken into account by measuring fluorescence in the absence of tissue and subtracting this value from the fluorescence of the samples.
Pig eyes were shipped overnight on ice from an abattoir (SiouxPreme, Sioux City, Iowa), rinsed in saline. Eyes were cleaned and epithelium was removed. […] Corneas were pan-corneally irradiated with a top hat beam (3% root mean square) for 4 minutes with 365-nm light source (UV LED NCSU033B[T]; Nichia Co., Tokushima, Japan) at irradiance 30 mW/cm^2, which was measured with a power sensor (model PD-300-UV; Ophir, Inc., Jerusalem, Israel) at the corneal surface. Corneal flaps (approximately 200 μm thick) were excised from the eyes with aid of Intralase femtosecond laser (Abbott Medical Optics, Santa Ana, Calif.). The average thickness of the corneal flaps was calculated as a difference between the measurements before and after the excision from the eyes with an ultrasonic Pachymeter (DGH Technology, Exton, Pa.). The flaps were then placed into a biaxial extensometer (CellScale Biotester 5000, Waterloo, ON), using biorake attachments with 5 tines spanning a width of 3 mm. Each sample was stretched at a constant rate of 4 μm/s in saline at 37° C. until sample failure. The flaps were washed with distilled water, dried in a vacuum until the weight change became less than 10% (Rotary vane vacuum pump RV3 A652-01-903, BOC Edwards, West Sussex, UK). Each flap was digested for 2.5 h at 65° C. with 2.5 units/ml of papain (from Papaya latex, Sigma) in 1 ml of papain buffer [BBBS (pH 7.0-7.2), 2 mM L-cysteine and 2 mM EDTA]. Papain digests were centrifuged for 5 seconds at 2200×G (Mini centrifuge 05-090-100, Fisher Scientific), diluted 0.5 times with 1XBBBS and fluorescence of the solutions was measured with excitation of λex=360 nm in a QM-40 Spectrofluorometer (Photon Technology Int., London, Ontario, Canada).

[3] = Solubility of folic acid in phosphate buffer; format: physicochemical; details: pH 7, aqueous buffer, 25° C., pH of the final solution 7.0
Excerpt: FA is soluble in water with dependence on pH and temperature. […] FA has UV light absorbance at 400 nm and below (the long wave peak at 360 nm as shown in FIG. 16), and fluorescence with maximum around 460 nm (as shown in FIG. 17).

human serum albumin = human serum albumin (Homo sapiens, UniProt P02768); details: irradiated in the presence of human serum albumin; cited from earlier work
human serum albumin, sequence (P02768 25-609): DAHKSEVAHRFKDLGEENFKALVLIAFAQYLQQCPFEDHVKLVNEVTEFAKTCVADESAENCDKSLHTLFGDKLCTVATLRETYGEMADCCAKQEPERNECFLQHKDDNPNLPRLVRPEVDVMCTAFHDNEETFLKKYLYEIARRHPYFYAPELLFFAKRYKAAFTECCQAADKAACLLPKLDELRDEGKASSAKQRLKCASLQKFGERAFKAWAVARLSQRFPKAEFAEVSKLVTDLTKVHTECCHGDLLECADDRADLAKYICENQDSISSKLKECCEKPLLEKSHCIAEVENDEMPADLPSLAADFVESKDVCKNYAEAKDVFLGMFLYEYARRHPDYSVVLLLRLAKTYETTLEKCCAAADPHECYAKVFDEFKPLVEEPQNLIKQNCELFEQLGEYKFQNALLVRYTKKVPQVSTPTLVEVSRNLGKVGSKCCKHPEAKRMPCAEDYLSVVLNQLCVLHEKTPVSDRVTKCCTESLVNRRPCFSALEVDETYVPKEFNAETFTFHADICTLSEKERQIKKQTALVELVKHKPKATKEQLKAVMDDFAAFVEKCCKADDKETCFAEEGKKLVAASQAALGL

Compound: Cc1cc2nc(C(=O)[O-])c(=O)n(C[C@H](O)[C@H](O)[C@H](O)CO)c2cc1C.O.[Na+] [sodium salt of 1,2-Dihydro-6,7-dimethyl-2-keto-1-D-ribityl-3-quinoxalinecarboxylic acid monohydrate]
fluorescence of the digested corneas in the area 450 nm (corneal collagen [1]; 0.1% in BBBS): elevated fluorescence in the area 450 nm | fluorescence of the digested corneal flaps (excitation 360 nm) (corneal collagen [1]; 0.1% in BBBS, de-oxygenated with argon, irradiated 4 min at 30 mW/cm^2 in CO2 atmosphere): higher than the fluorescence of the corneal flaps cross-linked with riboflavin

Compound: hydrogen peroxide [H2O2]
fluorescence counts of papain digested corneal flaps (corneal collagen [1]; flaps soaked 20 min in 1% H2O2, with or without a further 20 min in 0.1% Iron(II) (FeSO4), no UV): not when they were exposed to only H2O2

Compound: Cc1c(C(=O)NCCO)[n+]([O-])c2ccccc2[n+]1[O-] [Olaquindox, N-(2-hydroxyethyl)-3-methyl-2-quinoxalinecarboxamide 1,4-dioxide]
relative fluorescence recorded at 450 nm (corneal collagen [1]; 0.4% in PBS, UVA 30 mW/cm2, 4 min CW or 8 min pulsed + O2, vs non-irradiated control): acquired fluorescence at 450 nm | time to complete disappearance on irradiation (human serum albumin): ≤ 20 s | biaxial extensiometry (corneal collagen stiffness) (corneal collagen [2]; 0.4% in PBS, UVA 30 mW/cm2, 4 min CW or 8 min pulsed + O2, vs controls): became stiffer

More lines, main results first:

displacement vs. force (corneal stiffening) (corneal collagen [2]; UV 365 nm): significant stiffening | average force vs. displacement of corneal flap (tensiometry) (corneal collagen [2]; vs control group, UVA 30 mW/cm^2, 4 min, CW): higher than the control group
Compound: Cc1cc2nc3c(=O)[nH]c(=O)nc-3n(C[C@H](O)[C@H](O)[C@H](O)CO)c2cc1C [riboflavin]
fluorescence of the digested corneas in the area 450 nm (corneal collagen [1]; 0.1% in BBBS): elevated fluorescence in the area 450 nm | fluorescence of the corneal samples after digestion with papain (excitation 360 nm) (corneal collagen [1]; UV 365 nm): fluorescence of the cross-linked collagen samples increases

displacement-force (corneal stiffness) (corneal collagen [2]; UV 365 nm, 30 mW, 4 min): increase of the corneal stiffness | displacement-force (corneal stiffness) (corneal collagen [2]; without UV light): does not cross-link corneal flaps
Compound: CC(=O)C(C)=O [2,3-butanedione]
fluorescence (relative to the untreated controls, Fo) recorded at 450 nm (corneal collagen [1]; UV 365 nm, 30 mW, 4 min): increase of the corneal stiffness and fluorescence output | fluorescence (relative to the untreated controls, Fo) recorded at 450 nm (corneal collagen [1]; without UV light): does not cross-link corneal flaps

displacement vs. force (corneal stiffening) (corneal collagen [2]; UV 365 nm): significant stiffening | solubility [3]: 5500 µg/mL (≈ 12.5 mM)
Compound: Nc1nc2ncc(CNc3ccc(C(=O)N[C@@H](CCC(=O)O)C(=O)O)cc3)nc2c(=O)[nH]1 [FA, Folic acid]
fluorescence of the corneal samples after digestion with papain (excitation 360 nm) (corneal collagen [1]; UV 365 nm): fluorescence of the cross-linked collagen samples increases
